The values below come from PubChem BioAssay (NCI).

Test systems include HOP-92 NSCLC; SNB-75 CNS; SR leukemia; CCRF-CEM leukemia; RPMI-8226 leukemia; SF-295 CNS; HCT-116 colon; OVCAR-3 ovarian; SK-MEL-28 melanoma; SN12C renal.
What all share (assay): growth of human tumour cells (NCI), 48 h

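Growth conditions: 96-well plates. Treatment: test compound, 48 hours, 5 concentrations. Analysis: linear interpolation between bracketing concentrations; unreached endpoints set to highest concentration. Abbreviation: GI50, concentration required for 50% inhibition of growth. TGI denotes the concentration required for complete inhibition of growth.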

As for `Nc1nc(Nc2ccccc2)c2ncn(Cc3cc4c(cc3Br)OCO4)c2n1`, the GI50 is 65.1 nM with HOP-92 NSCLC; 62.3 nM in the assay on SNB-75 CNS; 37.1 nM in the assay on SR leukemia; 43.1 nM in the assay with CCRF-CEM leukemia; 49.7 nM in the assay with RPMI-8226 leukemia; 37 nM in the assay with SF-295 CNS. For the same compound, the GI50 in the assay with HCT-116 colon was 46 nM; in the assay on OVCAR-3 ovarian it was 32.6 nM; with SK-MEL-28 melanoma it was 524 nM; in the assay with SN12C renal, 407 nM. For the same compound, the TGI is 20700 nM in the assay with HOP-92 NSCLC; 25300 nM with SNB-75 CNS; more than 100000 nM in the assay on SR leukemia; more than 52700 nM in the assay on RPMI-8226 leukemia; 7270 nM in the assay with SF-295 CNS; 24900 nM in the assay with HCT-116 colon. For the same compound, the TGI is 237 nM in the assay with OVCAR-3 ovarian, 36200 nM in the assay with SK-MEL-28 melanoma and more than 100000 nM in the assay with SN12C renal.

Take `Cc1n(Cc2ccc3ccccc3c2)cc[n+]1Cc1ccc2ccccc2c1`: the GI50 with HOP-92 NSCLC was 673 nM; in the assay on SNB-75 CNS, 626 nM; in the assay with SR leukemia, 552 nM; in the assay on CCRF-CEM leukemia, 1870 nM; with RPMI-8226 leukemia, 405 nM; in the assay on SF-295 CNS it was 1830 nM. Moreover, the GI50 with HCT-116 colon was 1070 nM; with OVCAR-3 ovarian, 521 nM; with SK-MEL-28 melanoma it was 1020 nM; in the assay on SN12C renal, 1220 nM. The TGI in the assay on HOP-92 NSCLC came out at 3640 nM; with SNB-75 CNS it was 6140 nM; in the assay with SR leukemia, 2470 nM; in the assay with CCRF-CEM leukemia, 7190 nM; in the assay with RPMI-8226 leukemia, 1890 nM; in the assay on SF-295 CNS, 7210 nM. Also, the TGI in the assay with HCT-116 colon was 4400 nM; with OVCAR-3 ovarian, 2060 nM; in the assay with SK-MEL-28 melanoma it was 3050 nM; in the assay with SN12C renal it was 10200 nM.

With `Cc1ccc(Nc2nc(N)c(C(=O)c3ccc(C#N)cc3)s2)cc1`, the GI50 in the assay on HOP-92 NSCLC is 478 nM; in the assay with SNB-75 CNS it was 241 nM; with SR leukemia, 54.4 nM; with CCRF-CEM leukemia, 398 nM; with RPMI-8226 leukemia it was 560 nM; in the assay on SF-295 CNS it was 328 nM. Also, the GI50 with HCT-116 colon is 241 nM; in the assay on OVCAR-3 ovarian, 319 nM; in the assay with SK-MEL-28 melanoma, 18900 nM; with SN12C renal it was 617 nM. Also, the TGI is 32400 nM in the assay on HOP-92 NSCLC; 8110 nM with SNB-75 CNS; more than 100000 nM with SR leukemia; more than 100000 nM with CCRF-CEM leukemia; more than 100000 nM with RPMI-8226 leukemia; 37700 nM with SF-295 CNS. The TGI in the assay on HCT-116 colon is 6740 nM; in the assay with OVCAR-3 ovarian it was 5430 nM; in the assay on SK-MEL-28 melanoma, more than 100000 nM; in the assay on SN12C renal it was more than 100000 nM.
